The source of these data is patent EP0774249A2, “Topical composition containing specific flavanones” (UNILEVER PLC, priority 1995, dated 1997).

Entries after “also recorded” stand apart in the source; their conditions may differ. Read-outs that look alike come from different tables or passages of the source.

For the series, the system named is Human Epidermal Keratinocytes. The series is described as follows: Transglutaminase (TG-1) assay, ELISA on cultured keratinocytes. The format is cell-based. As to conditions: for Effects on Differentiation (TG-1): after 72 hour incubation; for morphology of the cells / cytotoxic effect on keratinocytes: observation of the cultures; for TG-1 Expressed Day 1 / TG-1 Expressed Day 2: concentrations not given; for TG-1 production DAY 2 / TG-1 production DAY 3 / TG-1 production DAY 1: absorbance OD 490nm; for TG-1 production DAY 2: control 0.134 (Exp. 1), 0.152 (Exp. 2), 0.174 (Exp. 3); for TG-1 production DAY 3: control 0.143 (Exp. 1), 0.200 (Exp. 2), 0.218 (Exp. 3); for TG-1 production DAY 1: control 0.154 (Exp. 1), 0.179 (Exp. 2), 0.181 (Exp. 3); for stimulation of differentiation (TG-1 production) against the control: 10, 25, 50 µg/mL, days 1 to 3 (Table 2); for activity at 10 µg/mL / activity at 25 µg/mL / activity at 50 µg/mL: Homo sapiens, Keratinocyte; for TG-1 expressed on Day 1: single flavanone. On the technique in general: ELISA stands for enzyme-linked immunosorbent assay.

[1] abbreviates: Experiment 1, control 0.17 ± 0.01.
[2] abbreviates: Experiment 1, control 0.21 ± 0.02.
Where [3] appears, read: Experiment 2, control 0.16 ± 0.01.
Where [4] appears, read: Experiment 2, control 0.20 ± 0.01.
[5] abbreviates: 24 h, 10 µg/mL, read-out: DAY 1 (% over control) (converted).
[6] abbreviates: 24 h, 25 µg/mL, read-out: DAY 1 (% over control) (converted).
[7] abbreviates: 24 h, 50 µg/mL, read-out: DAY 1 (% over control) (converted).
The mark [8] stands for this setting: 48 h, 10 µg/mL, read-out: DAY 2 (% over control) (converted).
Where [9] appears, read: 48 h, 25 µg/mL, read-out: DAY 2 (% over control) (converted).
[10] abbreviates: 48 h, 50 µg/mL, read-out: DAY 2 (% over control) (converted).
[11] abbreviates: 72 h, 10 µg/mL, read-out: DAY 3 (% over control) (converted).
[12] abbreviates: 72 h, 25 µg/mL, read-out: DAY 3 (% over control) (converted).
Setting [13] is: 72 h, 50 µg/mL, read-out: DAY 3 (% over control) (converted).
[14] abbreviates: 5μg/mL, control 0.17 (Exp. 1), 0.19 (Exp. 3).
Where [15] appears, read: 10μg/mL, control 0.17 (Exp. 1), 0.19 (Exp. 3).

As to `O=c1cc(-c2ccc(O)cc2)oc2cc(O)cc(O)c12` [Apigenin, reference compound], for the setting “5 and 15 µg/ml”, the “Effects on Differentiation (TG-1)” value was “No effect” and the “morphology of the cells / cytotoxic effect on keratinocytes” value was “disrupted the cell membranes”.

As for `CCCCCCCCCCCCC/C=C/C(O)C(CO)NC(C)=O` (stereo not shown) [C2-Ceramide (Formula A)], the “TG-1 Expressed Day 1” value under setting [1] is 0.15 ± 0.01^1. Further, the “TG-1 Expressed Day 2” value under setting [2] is 0.23 ± 0.02^3.

`CCCCCCCCCCCCCCCCN(CC(O)CO)C(C)=O` (stereo not shown) [C2-Neoceramide (Formula F)]: under setting [3], the “TG-1 Expressed Day 1” value is listed as 0.16 ± 0.01. Also, the “TG-1 Expressed Day 2” value under setting [4] is 0.21 ± 0.02.

`O=c1cc(-c2ccccc2)oc2cc(O)cc(O)c12` [Chrysin, reference compound]: for the setting “5 and 15 µg/ml”, the “Effects on Differentiation (TG-1)” value is “No effect”.

For the molecule `O=c1ccc2ccccc2o1` [Coumarin, reference compound], where the note is “5 and 15 µg/ml”, the “Effects on Differentiation (TG-1)” value is “No effect”.

Regarding `O=c1c(-c2ccc(O)cc2)coc2cc(O)ccc12` [Daidzein, reference compound], under “5 and 15 µg/ml”, the “stimulation or inhibition of differentiation processes, time course study” value is on record as “no effects”; the “Effects on Differentiation (TG-1)” value was “No effect”; the “morphology of the cells / cytotoxic effect on keratinocytes” value is recorded as “no morphological changes”.

With `Oc1cc(O)c2c(c1)O[C@H](c1ccc(O)c(O)c1)[C@H](O)C2` [Epicatechin, reference compound], under “5 and 15 µg/ml”, the “Effects on Differentiation (TG-1)” value was “No effect”.

On to `O=C1CC(c2ccc(O)c(O)c2)Oc2cc(O)cc(O)c21` (stereo not shown) [Eriodictyol], for which the “stimulation of differentiation (TG-1 production) against the control” value (shortened to “stimulation of differentiation”) was “stimulated differentiation to the same extent or higher than the control”. Moreover, under “10 µg/mL”, the “TG-1 production DAY 2” value is listed as 0.194 ± 0.01, the “TG-1 production DAY 3” value is on record as 0.264 ± 0.03 and the “TG-1 production DAY 1” value was found to be 0.178 ± 0.02. Besides, for the setting “25 µg/mL”, the “TG-1 production DAY 2” value is on record as 0.222 ± 0.05, the “TG-1 production DAY 3” value is 0.314 ± 0.07 and the “TG-1 production DAY 1” value is on record as 0.211 ± 0.04. Under “50 µg/mL”, the “TG-1 production DAY 2” value was 0.174 ± 0.02, the “TG-1 production DAY 3” value is 0.193 ± 0.05 and the “TG-1 production DAY 1” value is listed as 0.186 ± 0.02. Also, the “Effects on Differentiation (TG-1)” value (5 and 15 µg/ml) was “Increase TG-1”. Moreover, the “Effects on Differentiation (TG-1)” value (5 and 15 µg/ml, listed as eriodictyol) was “stimulated TG-1 production”. In addition, the activity at 10 µg/mL under setting [5] was 99%. Further, the activity at 25 µg/mL under setting [6] was 118%. The activity at 50 µg/mL under setting [7] was 104%. Further, the activity at 10 µg/mL under setting [8] is 128%. Further, the activity at 25 µg/mL under setting [9] was 146%. Besides, under setting [10], the activity at 50 µg/mL is 115%. Further, the activity at 10 µg/mL under setting [11] is 132%. Under setting [12], the activity at 25 µg/mL was 157%. In addition, under setting [13], the activity at 50 µg/mL was 97%.

As to `O=c1c(O)c(-c2ccc(O)c(O)c2)oc2cc(O)ccc12` [Fisetin, reference compound], the “Effects on Differentiation (TG-1)” value (5 and 15 µg/ml) is reported as “No effect”.

`COc1ccc(-c2coc3cc(O)ccc3c2=O)cc1` [Formonoetin, reference compound]: the “Effects on Differentiation (TG-1)” value (5 and 15 µg/ml) is given as “No effect”.

Consider `COc1ccc(C2CC(=O)c3c(O)cc(O)cc3O2)cc1O` (stereo not shown) [Hesperetin], for which the “stimulation of differentiation” value is recorded as “stimulated differentiation to the same extent or higher than the control”. In addition, the “TG-1 expressed on Day 1” value under setting [14] is 0.19 ± 0.01 ^1. Besides, the “TG-1 expressed on Day 1” value under setting [15] is reported as 0.19 ± 0.02 ^1. For the same molecule, where the note is “10 µg/mL”, the “TG-1 production DAY 2” value is 0.155 ± 0.01, the “TG-1 production DAY 3” value is given as 0.190 ± 0.01 and the “TG-1 production DAY 1” value amounted to 0.142 ± 0.01. Also, where the note is “20μg/mL, control 0.19 (Exp. 2)”, the “TG-1 expressed on Day 1” value was found to be 0.20 ± 0.02. Also, where the note is “25 µg/mL”, the “TG-1 production DAY 2” value was 0.167 ± 0.02, the “TG-1 production DAY 3” value stood at 0.182 ± 0.01 and the “TG-1 production DAY 1” value is 0.148 ± 0.02. For the setting “40μg/mL, control 0.19 (Exp. 2)”, the “TG-1 expressed on Day 1” value is listed as 0.20 ± 0.01. Further, where the note is “50 µg/mL”, the “TG-1 production DAY 2” value is reported as 0.213 ± 0.04, the “TG-1 production DAY 3” value is on record as 0.196 ± 0.01 and the “TG-1 production DAY 1” value came out at 0.154 ± 0.04. The “Effects on Differentiation (TG-1)” value (5 and 15 µg/ml) is “Increase TG-1”. Further, where the note is “5 and 15 µg/ml, listed as hesperetin”, the “Effects on Differentiation (TG-1)” value is “effective keratinocyte pro-differentiating agents; also recorded: stimulated TG-1 production”. The “TG-1 Expressed Day 1” value under setting [1] is 0.14 ± 0.01^1. Further, the “TG-1 Expressed Day 2” value under setting [2] was determined as 0.22 ± 0.02. Moreover, under setting [3], the “TG-1 Expressed Day 1” value was 0.15 ± 0.01^2. Also, the “TG-1 Expressed Day 2” value under setting [4] is on record as 0.21 ± 0.02. In addition, the activity at 10 µg/mL under setting [5] was 92%. Under setting [6], the activity at 25 µg/mL is 96%. The activity at 50 µg/mL under setting [7] is 100%. In addition, the activity at 10 µg/mL under setting [8] is 116%. Under setting [9], the activity at 25 µg/mL is 125%. Moreover, the activity at 50 µg/mL under setting [10] is 159%. For the same molecule, under setting [11], the activity at 10 µg/mL was 133%. Under setting [12], the activity at 25 µg/mL was 127%. For the same molecule, the activity at 50 µg/mL under setting [13] is 137%.

As for `COc1ccc([C@@H]2CC(=O)c3c(O)cc(O[C@@H]4O[C@H](CO[C@@H]5O[C@@H](C)[C@H](O)[C@@H](O)[C@H]5O)[C@@H](O)[C@H](O)[C@H]4O)cc3O2)cc1O` [Hesperidin, reference compound], under “5 and 15 µg/ml”, the “Effects on Differentiation (TG-1)” value is given as “No effect”.

Take `O=C1C[C@@H](c2ccc(O)cc2)Oc2cc(O)cc(O)c21` [Naringenin]: the “stimulation of differentiation” value is “stimulated differentiation to the same extent or higher than the control”. Besides, the “TG-1 expressed on Day 1” value under setting [14] was 0.19 ± 0.02. Further, the “TG-1 expressed on Day 1” value under setting [15] is on record as 0.21 ± 0.01 ^5. For the setting “10 µg/mL”, the “TG-1 production DAY 2” value is 0.149 ± 0.01, the “TG-1 production DAY 3” value worked out at 0.159 ± 0.01 and the “TG-1 production DAY 1” value worked out at 0.147 ± 0.01. For the setting “25 µg/mL”, the “TG-1 production DAY 2” value turned out to be 0.200 ± 0.03, the “TG-1 production DAY 3” value turned out to be 0.171 ± 0.02 and the “TG-1 production DAY 1” value is 0.207 ± 0.02. Moreover, where the note is “50 µg/mL”, the “TG-1 production DAY 2” value is recorded as 0.186 ± 0.01, the “TG-1 production DAY 3” value stood at 0.169 ± 0.01 and the “TG-1 production DAY 1” value is on record as 0.156 ± 0.01. Besides, the “Effects on Differentiation (TG-1)” value (5 and 15 µg/ml) is on record as “Increase TG-1”. Moreover, under “5 and 15 µg/ml, listed as naringenin”, the “Effects on Differentiation (TG-1)” value is reported as “effective keratinocyte pro-differentiating agents; also recorded: stimulated TG-1 production”. The activity at 10 µg/mL under setting [5] was 99%. The activity at 25 µg/mL under setting [6] is 134%. In addition, the activity at 50 µg/mL under setting [7] was 101%. In addition, the activity at 10 µg/mL under setting [8] was 111%. Moreover, the activity at 25 µg/mL under setting [9] is 149%. Under setting [10], the activity at 50 µg/mL was 139%. For the same molecule, under setting [11], the activity at 10 µg/mL was 111%. Under setting [12], the activity at 25 µg/mL is 120%. Also, the activity at 50 µg/mL under setting [13] was 118%.

As to `CC1OC(OC2C(Oc3cc(O)c4c(c3)OC(c3ccc(O)cc3)CC4=O)OC(CO)C(O)C2O)C(O)C(O)C1O` (stereo not shown) [Naringin, reference compound], the “Effects on Differentiation (TG-1)” value by setting is: (5 and 15 µg/ml) “No effect”; (5 and 15 µg/ml, listed as naringin) “not an effective material for promoting the differentiation of keratinocytes”.

With `O=c1c(O)c(-c2ccc(O)c(O)c2)oc2cc(O)cc(O)c12` [Quercetin, reference compound], under “5 and 15 µg/ml”, the “Effects on Differentiation (TG-1)” value is given as “No effect”.
